Laboratory results taken from US5480914A, “Nonaqueous thixotropic drug delivery suspensions and methods of their use” (priority 1994, dated 1996).
Entries after “also recorded” stand apart in the source; their conditions may differ. Structures can show the parent of a compound that is named as a salt. Where two headings read alike, the source gives them in different places. Each block holds one molecule with its values, some of them ahead of it.

Key:
[1] = system: rabbit eyes
Protocol: As a control, an aqueous solution containing the same amount of drug was prepared. The final concentration of the brimonidine in both formulations was 0.1% w/v. The nonaqueous thixotropic compositions of the present invention were administered in a low dose volume of 8 μl, while the prior art aqueous control was administered in a volume of 50 μl. The drugs were administered to one eye of the rabbit with both eyes subsequently monitored for changes in intraocular pressure.

[2] = Stability of drugs and suspensions after gamma irradiation (chromatographic analysis)
Protocol: Aseptic formulation of thixotropic pharmaceutical compositions was conducted in accordance with the teachings of the present invention as follows. […] Following the sizing operation, each individual drug was divided into lots, which were then placed in an atmosphere of either argon or air. Each lot was then sterilized using 1.0 or 2.5 Mrad of gamma radiation applied to the lots of each drug under argon or air. Concomitantly, colloidal silicon dioxide was sterilized using dry heat while perfluorodecalin was sterile filtered. The three components were then combined aseptically and blended using a high shear dispenser. The thixotropic pharmaceutical compositions were then analyzed by chromatographic techniques to determine the effect of gamma radiation on the stability of the ten drugs sterilized either in air or in the argon environment.

[3] = system: glaucomatous monkeys; test: Heart rate after topical levo-bunolol in conscious, glaucomatous monkeys; type: in vivo, monkey
Protocol: (§1) To illustrate the high localized drug bioavailability and correspondingly low systemic side effects of the present invention, a pharmacology study was conducted on conscious, glaucomatous monkeys. Formulations of 0.25% w/v levo-bunolol, used to reduce intraocular pressure in glaucoma patients, were administered as an aqueous solution and as a thixotropic pharmaceutical composition made in accordance with the teachings of the present invention. The monkeys were monitored for reductions in intraocular pressure, indicating the desired localized drug action, and for changes in heart rate, indicating undesirable drug migration away from the target site and into the systemic circulation. The thixotropic compositions were administered in low dose volume 8 μl drops while the aqueous formulations were administered in prior art drop volumes of approximately 35 μl. FIG. 13A is the mean reduction in heart rate for the monkeys treated with the aqueous solution of the drug while FIG. 13B is the mean reduction in heart rate for the monkeys treated with the nonaqueous formulation.

[4] = system: glaucomatous monkeys; test: Intraocular pressure after levo-bunolol in conscious, glaucomatous monkeys; type: in vivo, monkey; conditions: 0.25% w/v, 8 μl thixotropic versus approximately 35 μl aqueous
Protocol: as §1

[5] = cited from earlier work; for Density / Kin. viscosity / Specific heat / Surface tension: 25° C.; for Boiling point: ambient pressure
[6] = system: rabbit eyes; test: Pupil diameter change after pilocarpine; type: in vivo
Protocol: Three different concentrations of pilocarpine were formulated as prior art aqueous solutions and as exemplary nonaqueous thixotropic pharmaceutical compositions according to the teachings of the present invention. Specifically, aqueous solutions and nonaqueous suspensions of 0, 0.1%, 0.5% and 2% pilocarpine were formulated under sterile conditions. The nonaqueous drug suspensions were made using 0.5% CSD uniformly dispersed in perfluorodecalin. Both sets of formulations were administered to rabbit eyes in drop volumes of 8 μl using positive displacement pipettes. Changes in pupil diameter were monitored with three rabbits being used for each concentration of each formulation. In particular, FIG. 12A illustrates the effects of the three different concentrations of […] administered using the nonaqueous vehicle while FIG. 12B illustrates equivalent data for the prior art solubilized aqueous pilocarpine.

[7] = system: CHO cells; test: Chinese hamster ovary (CHO) clonal cytotoxicity assay; type: cell-based; conditions: three-hour exposure
Protocol: To confirm the lack of toxicity associated with the thixotropic compositions of the present invention, a Chinese hamster ovary (CHO) clonal assay was performed to measure the cytotoxic effects of CSD and perfluorodecalin on cell viability. As is well-known in the art, the CHO clonal assay is extremely sensitive and is often used to test pharmaceutical composition toxicity. Different cell populations were exposed to 0.5% w/v CSD in perfluorodecalin, and from 0.01% to 0.1% w/v AGN 191053 dispersed in a suspension of 0.5% w/v CSD in perfluorodecalin. Straight perfluorodecalin was used as a negative control with a three-hour exposure period for each formulation tested.

[8] = Flow curve analysis fitted to the Cross model (viscosity, yield stress); type: physicochemical
Protocol: In order to determine the stress threshold at which the CSD network collapsed, stress sweeps were run on the five dispersions formulated in Example 1. The stress sweeps were conducted using a Carri-med and CNMR CS 100 rheometer with an optical encoder upgrade. The measuring geometry for all the CSD/perfluorodecalin dispersions was a 4 cm SS Flat Plate with solvent trap. The gap, selected after conducting probe studies using the 2.5% w/v CSD/perfluorodecalin dispersion, was set at 250 μm for the stress sweeps. The measuring geometry for perfluorodecalin was a recessed concentric cylinder and cup set at a 4 mm gap. These stress studies were run at 15° C. to minimize the evaporation of perfluorodecalin. For longer experiments (greater than 10 minutes), a cover was placed over the Flat Plate to prevent perfluorodecalin vaporization. FIG. 1 plots delta versus shear stress for each of the dispersions. Delta is the phase of the actual curve relative to the applied sinusoidal stress. […] This stress threshold is CSD concentration dependent and indicates the presence of an elastic three-dimensional network at low or resting stresses (i.e. low delta values). […]
To further characterize the rheology of the dispersions formulated in Example 1, complete flow curves, fit to the Cross model, were generated over a broad range of shear rates. […] Yield stresses were calculated from flow curve data.

[9] = system: eyes of New Zealand albino rabbits; test: Ocular toxicity of CSD in perfluorodecalin, gross and slit lamp examination; type: in vivo, rabbit
Protocol: More specifically, CSD dispersions of 2% w/v, 1% w/v and 0.5% w/v were prepared as in Example 1 and topically administered to the rabbits six times, at one hour intervals. Dose volumes of 8 μl were used for each dispersion along with a perfluorodecalin control. Following the six topical installations, each of the eyes was subjected to gross and slit lamp examination.

[10] = 1.0 or 2.5 Mrad, under argon or air

Structure (SMILES): Brc1c(NC2=NCCN2)ccc2nccnc12 [brimonidine]
- peak mean intraocular pressure reduction, treated eye ([1]; 0.1% w/v, 8 μl thixotropic versus 50 μl aqueous): comparable to the much larger aqueous based prior art dosage
- intraocular pressure response, untreated eye ([1]; aqueous solution 0.1% w/v, 50 μl): undesirable pressure reduction in untreated eyes
- intraocular pressure response, untreated eye ([1]; thixotropic composition 0.1% w/v, 8 μl, versus aqueous control): significantly less intraocular pressure response in the untreated eye; also recorded: significant lower decrease in intraocular pressure in the untreated eyes

Structure (SMILES): CNCC(O)c1ccc(OC(=O)C(C)(C)C)c(OC(=O)C(C)(C)C)c1 (centres unmarked) [dipivalylepinephrine HCl]
- activity lost after gamma radiation [2]: No more than 5%

Structure (SMILES): CC(C)(C)NC[C@H](O)COc1cccc2c1CCCC2=O [levo-bunolol]
- decrease in heart rate, thixotropic relative to aqueous solution ([3]; 0.25% w/v, 8 μl thixotropic versus approximately 35 μl aqueous): 65%
- heart rate response ([3]; prior art aqueous delivery vehicle): undesirable decrease in heart rate
- reduction in intraocular pressure, thixotropic versus aqueous [4]: almost identical

Structure (SMILES): FC1(F)C(F)(F)C(F)(F)C2(F)C(F)(C1(F)F)C(F)(F)C(F)(F)C1(F)C(F)(F)C(F)(F)C(F)(F)C(F)(F)C12F (centres unmarked) [PPP, perfluoroperhydrophenanthrene]
- Density [5]: 2.016 gms/mL
- Kin. viscosity [5]: 8.0 cSt
- Specific heat [5]: 0.27 g-cal/gm
- Surface tension [5]: 21.6 dynes/cm
- Boiling point [5]: 215 °C

Structure (SMILES): CC[C@@H]1C(=O)OC[C@@H]1Cc1cncn1C [pilocarpine]
- recovery period of pupil diameter ([6]; nonaqueous formulation versus aqueous): prolonged recovery period
- reduction in pupil size ([6]; nonaqueous thixotropic versus aqueous, equivalent drug concentrations, 8 μl): greater pharmaceutical effect, i.e. a reduction in pupil size

- activity lost after gamma radiation [2]: No more than 5%
Structure (SMILES): O=C(O)c1cc(=O)c2c(OCC(O)COc3cccc4oc(C(=O)O)cc(=O)c34)cccc2o1 [sodium cromoglycate]

Structure (SMILES): FC1(F)C(F)(F)C(F)(F)C2(F)C(F)(F)C(F)(F)C(F)(F)C(F)(F)C2(F)C1(F)F (centres unmarked) [perfluorodecalin, Perfluoro(decahydronaphthalene)]
- chemical toxicity to CHO cells [7]: Neither the perfluorodecalin nor the CSD/perfluorodecalin formulations exhibited any chemical toxicity
- Density [5]: 1.929 gms/mL
- Kin. viscosity [5]: 2.9 cSt
- Specific heat [5]: 0.22 g-cal/gm
- Surface tension [5]: 19.3 dynes/cm
- Boiling point [5]: 142 °C
- specific gravity ([5]; used to convert drop weight to volume): 1.93 g/mL
- viscosity of pure perfluorodecalin without CSD [8]: 9.2 centipoise
- Newtonian viscosity ([8]; 0% CSD): 0.092 poise
- toxicity (cornea) ([9]; 6 topical doses of 8 μl at one hour intervals): no discomfort, irritation, or toxicity
- eye discomfort ([9]; rabbit, in vivo): no discomfort, irritation, or toxicity
- irritation (conjunctiva) ([9]; rabbit, in vivo): no discomfort, irritation, or toxicity

- activity lost after gamma radiation [2]: No more than 5%
Structure (SMILES): CC1COc2c(N3CCN(C)CC3)c(F)cc3c(=O)c(C(=O)O)cn1c23 (centres unmarked) [ofloxacin]

- activity lost after gamma radiation [2]: No more than 5%
Structure (SMILES): CC(C(=O)O)c1ccc(-c2ccccc2)c(F)c1 (centres unmarked) [sodium flurbiprofen]

- activity lost after gamma radiation [2]: No more than 5%
Structure (SMILES): CC(C)(C)NC[C@H](O)COc1cccc2c1CCCC2=O [levo-bunolol HCl]

Structure (SMILES): O [Water]
- Density [5]: 1.000 gms/mL
- Kin. viscosity [5]: 1.00 cSt
- Specific heat [5]: 1.00 g-cal/gm
- Surface tension [5]: 72.0 dynes/cm

- activity lost after gamma radiation [2]: No more than 5%
Structure (SMILES): Cc1nnc(SCC2=C(C(=O)O)N3C(=O)[C@@H](NC(=O)Cn4cnnn4)[C@H]3SC2)s1 [sodium cephazolin]

Structure (SMILES): CC(=O)OCC(=O)[C@@]1(O)CC[C@H]2[C@@H]3CCC4=CC(=O)C=C[C@]4(C)[C@H]3[C@@H](O)C[C@@]21C [prednisolone acetate]
- activity lost after gamma radiation [2, 10]: No more than 5%

Structure (SMILES): Brc1c(NC2=NCCN2)ccc2nccnc12 [AGN 190342]
- activity lost after gamma radiation [2]: No more than 5%

- activity lost after gamma radiation [2, 10]: No more than 5%
Structure (SMILES): CC(C)(C)NC[C@H](O)COc1nsnc1N1CCOCC1 [timolol]
